Results as given in US20070026465A1, “Method for detecting GAD65 autoreactive T cells newly diagnosed type1 diabetic patients and in the prediabetic period” (priority 2005, published 2007).

Tested on: PBMC of newly diagnosed T1D patients
Assay: GAD65 HLA class I tetramer staining and flow cytometry of stimulated PBMC, T1D patients
Type: cell-based, human

VMNILLQYV [GAD65 peptide]
% of CD3+/CD8+/GAD65 reactive T cells (specificity of the response): 6.39%
